Measurements as given in patent publication US12274729B2, “Formulations and methods for skin care or hyaluronic acid synthesis” (AMILYFE, LLC, priority 2022, dated 2025).

Tests used:
[1] = Preliminary screens of amino acids
Protocol: In addition to the amino acid combinations described above, several other combinations are tested that include, e.g., Trp and/or Arg to determine if inclusion of these amino acids confers additional dermatological benefits. […] At the outset, the following combinations of amino acids are tested: Ala, Gln, Gly, Ser (combo #1); Ala, Gln, Gly, Ser, Val, Ile (combo #2); Ala, Gln, Gly, Ser, Val; Ala, Gln, Gly, Ser, Ile; Ala, Gln, Gly, Ser, Ile, Val, Trp; Ala, Gln, Gly, Ser, Ile, Val, Arg; and Ala, Gln, Gly, Ser, Ile, Val, Trp, Arg.

[2] = test system: barrier marker genes in differentiated normal human epidermal keratinocytes (NHEK); test: qPCR mRNA expression of barrier marker genes in differentiated NHEK; format: cell-based; conditions: qPCR data from two donors
Protocol: Treatment time—4 h. […] Data from two independent experiments. Exemplary barrier marker genes examined as follows: Epidermal growth factor (EGF); fibroblast growth factor 2 (FGF2); platelet derived growth factor (PDGF); Carnitine Palmitoyltransferase 2 (CPT2); Transglutaminase 4 (TGM4); Peroxisome Proliferator Activated Receptor Delta (PPARD); TNF Receptor Superfamily Member 10d (TNFRSF10D).
To test the effect of amino acid treatment on epithelial skin barrier, a cellular model of differentiated normal human epidermal keratinocytes (NHEK) was utilized. Commercially available NHEK (ATCC), derived from three diverse healthy donors, were used. Based on a multivariate analysis, three amino acids for the treatment: Ser, Gln and Gly were selected.
Using gene arrays, comparative analyses of two datasets were performed in three diverse donors focusing on consistently differentially [filter criterion of fold change 1.5 (positive or negative) and p-value <0.05)] expressed genes following treatment with various amino acids and combinations thereof. qPCR was used to assess the mRNA expression results. The qPCR results confirmed the array results pertaining to differential expression, thereby validating the panel of genes.
mRNA is extracted, converted to cDNA, and analyzed by qPCR method using custom TaqMan array 384-well plates (Thermo Fisher Scientific) containing 34 of the above-mentioned genes. Four control housekeeping genes are included to normalize the mRNA expression: GAPDH, POLR2A, YWHAZ and PGK1. The array plate will contain 38 genes in total and 10 samples can be analyzed in one run of qPCR.

[3] = test system: HAS2 mRNA in human-derived epidermal keratinocytes (NHEK); test: HAS2 mRNA fold change (qPCR) in keratinocytes; format: cell-based; conditions: 4GAA 4 mM, ROL 10 μM
[4] = test system: HAS3 mRNA in human-derived epidermal keratinocytes (NHEK); test: HAS3 mRNA fold change (qPCR) in keratinocytes; format: cell-based; conditions: 4GAA 4 mM, ROL 10 μM
[5] = Donor O and Donor R keratinocytes, 24 h in complete medium
[6] = NHEK Donors E, G, O, R, T, 4 h in amino acid-deprived medium

N=C(N)NCCC[C@H](N)C(=O)O [Arg, arginine]
effect in preliminary screens [1]: positive effects

N[C@@H](CS)C(=O)O [Cys, cysteine]
effectiveness in comparative analysis of qPCR data with scoring system [2]: least effective

CC1=C(/C=C/C(C)=C/C=C/C(C)=C/CO)C(C)(C)CCC1 [ROL, retinol]
HAS2 mRNA gene expression [3, 5]: upregulated | HAS2 gene expression [3, 6]: upregulated | HAS3 mRNA gene expression [4, 5]: upregulated | HAS3 gene expression [4, 6]: upregulated

O=C(O)[C@@H]1CCCN1 [Pro, proline]
effectiveness in comparative analysis of qPCR data with scoring system [2]: least effective

C[C@@H](O)[C@H](N)C(=O)O [Thr, threonine]
effectiveness in comparative analysis of qPCR data with scoring system [2]: least effective

NCC(=O)O [Gly, glycine]
effectiveness in comparative analysis of qPCR data with scoring system [2]: most effective

N[C@@H](Cc1ccc(O)cc1)C(=O)O [Tyr, tyrosine]
effectiveness in comparative analysis of qPCR data with scoring system [2]: least effective

N[C@@H](CC(=O)O)C(=O)O [Asp, aspartic acid]
effectiveness in comparative analysis of qPCR data with scoring system [2]: least effective

NC(=O)CC[C@H](N)C(=O)O [Gln, glutamine]
effectiveness in comparative analysis of qPCR data with scoring system [2]: most effective

N[C@@H](CO)C(=O)O [Ser, serine]
effectiveness in comparative analysis of qPCR data with scoring system [2]: most effective

N[C@@H](Cc1c[nH]c2ccccc12)C(=O)O [Trp, tryptophan]
effect in preliminary screens [1]: positive effects

C[C@H](N)C(=O)O [Ala, alanine]
effectiveness in comparative analysis of qPCR data with scoring system [2]: most effective
